Experimental data published in patent US20240174625A1, “COMPOSITIONS AND METHODS FOR TREATING TAUOPATHIES” (The Regents of the University of California, priority 2021, published 2024).

Experiments:
Huntingtin = Huntingtin protein level in human primary cortical neurons; assay type: cell-based; details: 50 μM, 48 hrs
Method: (§1) FIG. 11. Potential applications of NPEPPS enhancer JMM series on other neurodegenerative diseases. JMM001 (Cp 1) at 50 μM reduces protein levels of huntingtin (htt), SOD1, ataxin, and alpha-synuclein in human primary cortical neurons. Neurons were treated with 50 μM JMM001 or 10 uM bestatin for 48 hrs. N=3-4±SEM.

[1] = test system: superoxide dismutase 1 (SOD1); experiment: SOD1 protein level in human primary cortical neurons; assay type: cell-based; details: 50 μM, 48 hrs
Method: as §1

NPEPPS = target: T1, NPEPPS (Homo sapiens, UniProt P55786); experiment: Cellular thermal shift assay (CETSA) in HEK293T cell lysates; assay type: binding; details: concentration-dependent
T1 construct: endogenous in cells; host or cells: HEK293T
Method: Cellular thermal shift analysis (CETSA) was conducted at Pelago Bioscience. Briefly, HEK293T cells were harvested and suspended in an experimental Buffer B (20 mM HEPES, 138 mM NaCl, 5 mM KCl, 2 mM CaCl2), 1 mM MgCl2, pH7.4) at a density of 4×10^7 cells/ml. Cell suspension was lysed by three rounds of freeze-thaw cycles with liquid nitrogen and clarified at 20,000 g for 20 min at 4° C. Compounds diluted to 2× final concentration (final solution contains 1% DMSO) in Buffer B were added to equal volume of clarified cell lysates and incubated at 37° C. for 30 min with continuous rotation. 1% DMSO was used as a negative control in parallel. The treated cell lysates were then divided into 60 μl aliquots and subjected to a 12-step heat challenge between 50° C. and 62° C. for 3 min. For the concentration-dependent analyses, clarified cell lysates in 30 aliquots were mixed with an equal volume of compounds or DMSO in Buffer B at 2× intended compound concentration and incubated at 37° C. for 30 min with continuous rotation. JMM001-treated lysates were then heat challenged at 59° C. as determined from its corresponding cellular thermal shift curve. All treated lysates were immediately centrifugated at 20,000 g for 20 min at 4° C. prior to immunoblotting analysis. […] The obtained intensities were plotted as the luminescence count normalized to a relevant temperature or control count as specified.

[2] = test system: rhodopsin::EGFP-MAPT transgenic zebrafish expressing the Tau^P301L mutation; experiment: Photoreceptor neurodegeneration in a zebrafish model of tauopathy; assay type: in vivo
Method: The rhodopsin::EGFP-MAPT transgenic zebrafish expressing the Tau^P301L mutation is generated and maintained as previously described^22,23. Tau^P301L expression is restricted to the rods of the retina. Photoreceptor image and quantification in central retina sections in the region of the optic nerve head is performed as previously described^2223.

ataxin-3 = experiment: Ataxin-3 protein level in human primary cortical neurons; assay type: cell-based; details: 50 μM, 48 hrs
Method: as §1

[3] = target: Recombinant human (rh) NPEPPS protein (Homo sapiens, UniProt P55786); experiment: Cell-free thermal shift (protein stability) assay; assay type: binding; details: concentration-dependent
Method: Cell-free thermal shift assay: Recombinant human (rh) NPEPPS protein was diluted in Buffer A (20 mM Tris, 137 mM NaCl, pH 7.5) to a final concentration of 1.25 μM and added to a pre-chilled 384-well microplate (Biorad HSR4801). JMM001, dimethyl sulfoxide (DMSO, Sigma D2650), or NPEPPS inhibitor puromycin dihydrochloride (Sigma P8833) in 1 μl was then added to each well, mixed with gentle aspiration, and incubated with rhNPEPPS for 3 min on ice. SYPRO Orange (Invitrogen S6651) was diluted to 200× concentration in Buffer A and added to each well achieving a final dilution of 1:20, mixed with gentle aspiration. The final assay volume was 20 μl. The plate was sealed followed by a brief spin-down. The samples were analyzed on a Real-time PCR system (Roche LightCycler 480) from 20° C. to 85° C. at a continuous acquisition rate of 5 measurements/° C. and measured at excitation/emission wavelengths of 533/580 nm. Melting temperature is calculated as the lowest derivative of the fluorescence signal as a function of the temperature as previously described^7,18.

T1 sequence (P55786 whole entry): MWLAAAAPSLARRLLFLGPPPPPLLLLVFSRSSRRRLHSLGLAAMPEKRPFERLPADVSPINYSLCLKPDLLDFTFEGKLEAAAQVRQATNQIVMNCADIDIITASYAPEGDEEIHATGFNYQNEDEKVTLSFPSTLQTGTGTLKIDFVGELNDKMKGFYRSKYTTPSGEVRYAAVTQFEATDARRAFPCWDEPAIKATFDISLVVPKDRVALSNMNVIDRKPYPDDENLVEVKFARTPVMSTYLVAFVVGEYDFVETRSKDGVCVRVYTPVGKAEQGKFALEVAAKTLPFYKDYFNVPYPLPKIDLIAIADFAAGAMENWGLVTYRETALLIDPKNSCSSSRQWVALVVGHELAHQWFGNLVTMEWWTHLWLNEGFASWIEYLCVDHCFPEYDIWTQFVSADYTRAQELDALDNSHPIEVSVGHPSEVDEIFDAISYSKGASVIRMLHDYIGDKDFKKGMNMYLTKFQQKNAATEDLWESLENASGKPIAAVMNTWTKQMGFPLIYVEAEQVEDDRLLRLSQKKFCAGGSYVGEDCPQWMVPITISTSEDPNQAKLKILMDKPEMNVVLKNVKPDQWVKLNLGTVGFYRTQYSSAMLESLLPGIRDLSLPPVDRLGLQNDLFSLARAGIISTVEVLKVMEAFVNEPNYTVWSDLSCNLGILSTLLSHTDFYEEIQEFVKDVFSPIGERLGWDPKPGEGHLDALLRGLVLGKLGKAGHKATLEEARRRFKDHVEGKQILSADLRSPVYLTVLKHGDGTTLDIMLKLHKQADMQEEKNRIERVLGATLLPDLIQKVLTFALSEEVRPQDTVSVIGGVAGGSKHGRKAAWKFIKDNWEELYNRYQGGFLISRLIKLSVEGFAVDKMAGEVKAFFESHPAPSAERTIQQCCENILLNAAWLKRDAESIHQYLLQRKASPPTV
Recombinant human (rh) NPEPPS protein, sequence (P55786 whole entry): as above

protein level of SOD1 [1]: reduces
thermal shift of NPEPPS (NPEPPS): significant thermal shift
SMILES: COc1ccc(CNc2nsc3ccccc23)cc1OC [JMM001]
protein level of Huntingtin (Huntingtin): reduces
photoreceptor degeneration ([2]; 0.01 and 0.03 μM, compared to DMSO control): rescue
retinal photoreceptor degeneration ([2]; 0.01 and 0.05 μM): rescued
protein level of ataxin-3 (ataxin-3): reduces
melting temperature of rhNPEPPS [3]: significant, concentration-dependent increases in melting temperature
